We go through three compounds from US20250145566A1, “PHENETHYLAMINE DERIVATIVES, COMPOSITIONS, AND METHODS OF USE” (Cybin IRL Limited, priority 2022, published 2025).

Assay [1] deals with T1, 5-HT2B (h) (Homo sapiens, UniProt P41595).
T1 construct: expressed in transfected cells; host or cells: CHO cells
The assay is described as follows: 5-HT2B (h) agonist effect, IP1 HTRF functional assay. It counts as cell-based.

Assay [2] concerns the target T2, 5-HT transporter (h) (Homo sapiens, UniProt P31645).
T2 construct: expressed in transfected cells; host or cells: CHO cells
The assay is described as follows: 5-HT transporter (h) binding, [3H]imipramine. The conditions noted are these: at 10 μM.

For another assay, the target named is T3, Serotonin transporter (Rattus norvegicus, UniProt P31652).
T3 construct: from tissue
The assay is described as follows: Serotonin transporter uptake, rat brain synaptosomes. It counts as biochemical.

In assay [3] the target is T4, 5-HT2A (h) (Homo sapiens, UniProt P28223).
T4 construct: expressed in transfected cells; host or cells: HEK-293 cells
The experiment in a line: 5-HT2A (h) agonist effect, IP1 HTRF functional assay. It counts as cell-based. (In general: Time-resolved FRET reads energy transfer from a long-lived donor to a nearby acceptor.)

Assay [4] deals with T5, Dopamine transporter (Homo sapiens, UniProt Q01959). The assay is described as follows: Dopamine transporter uptake (h). It counts as cell-based.
Assay [5] deals with T1, 5-HT2B (h). The experiment in a line: 5-HT2B (h) agonist radioligand [125I](±)DOI binding. The note with it: at 10 μM. As to the method: (§1) Samples were then analyzed as described above.
The target in assay [6] is T6, norepinephrine transporter (h) (Homo sapiens, UniProt P23975).
T6 construct: expressed in transfected cells; host or cells: CHO cells
The assay is described as follows: norepinephrine transporter (h) binding, [3H]nisoxetine. The note with it: at 10 μM; table calls these values “No Binding”.

Assay [7] has as its target T7, 5-HT2C (h) (Homo sapiens, UniProt P28335).
T7 construct: expressed in transfected cells; host or cells: HEK-293 cells
T7 sequence (P28335 33-458): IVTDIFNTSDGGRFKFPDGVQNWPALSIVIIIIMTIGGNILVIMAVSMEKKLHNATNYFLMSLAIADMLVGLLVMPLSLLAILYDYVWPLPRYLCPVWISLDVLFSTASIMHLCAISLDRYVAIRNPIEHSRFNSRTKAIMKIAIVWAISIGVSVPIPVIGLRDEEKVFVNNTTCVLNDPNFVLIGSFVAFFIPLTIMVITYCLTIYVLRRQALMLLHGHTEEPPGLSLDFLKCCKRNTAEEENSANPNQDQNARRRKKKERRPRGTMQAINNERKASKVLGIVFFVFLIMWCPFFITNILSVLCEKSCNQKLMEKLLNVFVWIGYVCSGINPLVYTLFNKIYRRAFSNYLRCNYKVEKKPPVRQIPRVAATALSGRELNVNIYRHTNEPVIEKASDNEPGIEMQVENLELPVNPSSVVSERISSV
The assay is described as follows: 5-HT2C (h) agonist radioligand [125I](±)DOI binding. The conditions noted are these: at 10 μM. How it is done: as §1

Another assay deals with T8, dopamine transporter (h) (Homo sapiens, UniProt Q01959).
T8 construct: expressed in transfected cells; host or cells: CHO cells
The experiment in a line: dopamine transporter (h) binding, [3H]BTCP. The note with it: at 10 μM; table calls these values “No Binding”.

Assay [8] has as its target T4, 5-HT2A (h). The experiment in a line: 5-HT2A (h) agonist radioligand [125I](±)DOI binding. The note with it: at 10 μM.
For assay [9], the target named is T7, 5-HT2C (h). The assay is described as follows: 5-HT2C (h) agonist effect, IP1 HTRF functional assay. In kind it is cell-based.
In assay [10] the target is T9, Norepinephrine transporter (Homo sapiens, UniProt P23975). The experiment in a line: Norepinephrine transporter uptake (h). In kind it is cell-based.
The target of a further assay is T10, 5-HT2A receptor (Homo sapiens, UniProt P28223).
T10 construct: host or cells: HEK293 (ATCC CRL-1573), transient, membranes
The conditions noted are these: literature value (Rickli et al. 2016); cited from earlier work.

Assay [11] concerns the target T6, norepinephrine transporter (h). The note with it: read-out: Binding NET Ki; literature, racemic; cited from earlier work.
Assay [12] concerns the target T9, Norepinephrine transporter. The note with it: variable numbers in the literature, racemic, cited from earlier work.
The target of assay [13] is T5, Dopamine transporter. The note with it: variable numbers in the literature, racemic, cited from earlier work.
Assay [14] has as its target T4, 5-HT2A (h). The conditions noted are these: read-out: Binding 5-HT2A Ki; antagonist radioligand; literature, racemic; cited from earlier work.
Assay [15] concerns the target T2, 5-HT transporter (h). The note with it: read-out: Binding SERT Ki; literature, racemic; cited from earlier work.

Molecules are shown by their SMILES. Like-named read-outs stand apart in the source and are kept apart here.

T1 sequence (P41595 whole entry): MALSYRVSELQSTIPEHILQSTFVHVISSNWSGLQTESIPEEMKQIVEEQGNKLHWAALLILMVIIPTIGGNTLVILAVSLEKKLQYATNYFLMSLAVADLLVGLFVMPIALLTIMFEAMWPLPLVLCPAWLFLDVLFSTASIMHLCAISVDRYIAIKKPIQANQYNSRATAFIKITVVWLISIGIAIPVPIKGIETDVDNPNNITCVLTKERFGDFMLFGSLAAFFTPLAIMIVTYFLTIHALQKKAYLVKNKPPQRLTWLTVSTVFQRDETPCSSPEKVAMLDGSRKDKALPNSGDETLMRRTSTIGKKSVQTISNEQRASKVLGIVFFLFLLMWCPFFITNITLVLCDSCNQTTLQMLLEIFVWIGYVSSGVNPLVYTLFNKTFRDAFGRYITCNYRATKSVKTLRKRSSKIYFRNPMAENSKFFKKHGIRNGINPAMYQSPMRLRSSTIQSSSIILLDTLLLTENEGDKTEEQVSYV
T3 sequence (P31652 whole entry): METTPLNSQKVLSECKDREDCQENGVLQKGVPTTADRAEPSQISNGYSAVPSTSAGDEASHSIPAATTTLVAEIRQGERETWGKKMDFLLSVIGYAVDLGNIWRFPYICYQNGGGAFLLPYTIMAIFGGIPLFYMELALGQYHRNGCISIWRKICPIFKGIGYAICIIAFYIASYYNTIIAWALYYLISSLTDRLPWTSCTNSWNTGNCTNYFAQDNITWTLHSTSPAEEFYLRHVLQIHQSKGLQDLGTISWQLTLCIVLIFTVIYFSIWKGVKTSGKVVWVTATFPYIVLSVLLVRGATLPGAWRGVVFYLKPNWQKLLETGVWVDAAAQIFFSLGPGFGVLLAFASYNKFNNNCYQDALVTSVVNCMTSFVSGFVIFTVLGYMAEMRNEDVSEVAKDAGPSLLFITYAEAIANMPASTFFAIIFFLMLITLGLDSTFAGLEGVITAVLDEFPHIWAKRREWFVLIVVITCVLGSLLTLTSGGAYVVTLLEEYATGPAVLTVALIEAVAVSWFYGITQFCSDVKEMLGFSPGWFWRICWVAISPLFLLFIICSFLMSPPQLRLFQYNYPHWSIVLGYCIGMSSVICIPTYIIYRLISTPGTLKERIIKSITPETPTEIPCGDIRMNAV
T4 sequence (P28223 whole entry): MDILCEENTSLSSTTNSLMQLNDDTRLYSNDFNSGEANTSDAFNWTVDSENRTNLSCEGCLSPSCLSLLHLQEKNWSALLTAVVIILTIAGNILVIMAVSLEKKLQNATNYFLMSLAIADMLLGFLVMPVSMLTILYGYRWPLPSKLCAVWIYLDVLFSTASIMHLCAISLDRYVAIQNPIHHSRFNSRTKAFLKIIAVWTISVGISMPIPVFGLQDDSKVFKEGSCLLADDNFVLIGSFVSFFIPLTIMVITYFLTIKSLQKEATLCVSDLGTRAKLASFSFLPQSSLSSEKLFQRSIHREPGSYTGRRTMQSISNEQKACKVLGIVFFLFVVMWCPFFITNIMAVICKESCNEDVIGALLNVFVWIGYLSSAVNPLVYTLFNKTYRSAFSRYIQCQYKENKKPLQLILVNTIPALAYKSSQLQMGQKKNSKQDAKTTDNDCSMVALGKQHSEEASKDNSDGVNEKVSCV
T9 sequence (P23975 whole entry): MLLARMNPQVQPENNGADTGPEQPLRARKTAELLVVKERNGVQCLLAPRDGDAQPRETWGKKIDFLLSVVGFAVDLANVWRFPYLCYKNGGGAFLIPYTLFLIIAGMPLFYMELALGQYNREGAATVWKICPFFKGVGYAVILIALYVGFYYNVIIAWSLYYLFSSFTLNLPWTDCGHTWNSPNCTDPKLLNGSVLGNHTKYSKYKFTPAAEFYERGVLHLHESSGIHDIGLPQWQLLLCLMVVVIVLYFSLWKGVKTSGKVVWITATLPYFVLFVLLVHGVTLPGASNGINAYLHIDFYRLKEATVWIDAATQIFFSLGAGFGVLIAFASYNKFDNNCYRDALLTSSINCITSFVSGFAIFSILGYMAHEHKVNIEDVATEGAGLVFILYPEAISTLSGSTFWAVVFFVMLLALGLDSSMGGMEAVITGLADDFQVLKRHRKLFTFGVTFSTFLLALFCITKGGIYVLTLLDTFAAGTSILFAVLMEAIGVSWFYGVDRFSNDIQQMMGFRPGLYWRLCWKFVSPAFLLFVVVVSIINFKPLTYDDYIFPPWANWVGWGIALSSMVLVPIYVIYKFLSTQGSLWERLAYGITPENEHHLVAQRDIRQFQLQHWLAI
T5 sequence (Q01959 whole entry): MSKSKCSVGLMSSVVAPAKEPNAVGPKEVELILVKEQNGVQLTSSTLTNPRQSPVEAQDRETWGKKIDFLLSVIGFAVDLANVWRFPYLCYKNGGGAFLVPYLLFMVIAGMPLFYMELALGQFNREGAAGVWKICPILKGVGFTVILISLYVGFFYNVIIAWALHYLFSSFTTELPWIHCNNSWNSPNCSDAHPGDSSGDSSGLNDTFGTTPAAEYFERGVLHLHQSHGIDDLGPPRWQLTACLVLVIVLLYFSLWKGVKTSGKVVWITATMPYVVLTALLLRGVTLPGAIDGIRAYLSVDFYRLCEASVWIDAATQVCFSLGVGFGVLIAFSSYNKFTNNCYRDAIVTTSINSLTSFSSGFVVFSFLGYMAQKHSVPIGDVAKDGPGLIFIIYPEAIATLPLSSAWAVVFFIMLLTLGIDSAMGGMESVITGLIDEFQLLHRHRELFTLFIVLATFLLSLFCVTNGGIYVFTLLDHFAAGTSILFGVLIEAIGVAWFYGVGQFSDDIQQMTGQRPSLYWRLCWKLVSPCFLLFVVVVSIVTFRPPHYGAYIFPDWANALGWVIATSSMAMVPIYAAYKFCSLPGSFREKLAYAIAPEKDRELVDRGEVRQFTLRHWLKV
T6 sequence (P23975 whole entry): as the sequence (P23975 whole entry) above
T2 sequence (P31645 whole entry): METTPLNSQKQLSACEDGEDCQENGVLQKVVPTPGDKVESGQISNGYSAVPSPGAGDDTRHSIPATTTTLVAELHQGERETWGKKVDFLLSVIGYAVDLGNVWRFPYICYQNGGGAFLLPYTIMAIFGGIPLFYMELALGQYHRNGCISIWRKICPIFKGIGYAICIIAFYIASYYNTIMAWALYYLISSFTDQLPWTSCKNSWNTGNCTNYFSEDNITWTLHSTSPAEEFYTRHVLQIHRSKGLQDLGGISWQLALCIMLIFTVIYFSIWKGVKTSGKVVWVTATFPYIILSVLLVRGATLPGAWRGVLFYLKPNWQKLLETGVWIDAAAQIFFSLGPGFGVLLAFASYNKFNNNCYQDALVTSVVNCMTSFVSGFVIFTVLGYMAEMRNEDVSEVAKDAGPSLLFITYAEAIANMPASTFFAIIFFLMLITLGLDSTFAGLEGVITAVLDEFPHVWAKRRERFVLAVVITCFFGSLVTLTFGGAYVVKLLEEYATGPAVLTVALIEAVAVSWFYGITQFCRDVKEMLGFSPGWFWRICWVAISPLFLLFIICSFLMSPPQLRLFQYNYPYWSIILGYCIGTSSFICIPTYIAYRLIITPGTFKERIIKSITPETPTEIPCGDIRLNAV
T10 sequence (P28223 whole entry): as the sequence (P28223 whole entry) above
T8 sequence (Q01959 whole entry): as the sequence (Q01959 whole entry) above

Usually EC50 stands for the concentration at which the effect is half-maximal. For orientation: Emax means the greatest response seen or fitted, relative to the assay's reference. As a reminder, the inhibition is the change of the read-out against control, counted positive when it falls. For orientation: IC50 means the concentration that gives 50% inhibition. Regarding `CC(N)Cc1ccc2c(c1)OCS2` (racemic) [II-16 (racemic)], the half-maximal effective concentration (EC50) at 5-HT2B (h) [1] (Gq-IP1, estimated from four concentrations, read-out: Function 5-HT2B Estimated EC50) is less than 500 nM; on 5-HT2A (h) [3] (IP-1, estimated from four concentrations, read-out: Function 5-HT2A Estimated EC50), 2500 nM; on 5-HT2C (h) [9] (Gq-IP1, estimated from four concentrations, read-out: Function 5-HT2C Estimated EC50), less than 800 nM. Besides, the maximal effect (Emax) at 1 µM on 5-HT2B (h) [1] (at 1 μM, relative to 5-HT, read-out: Function 5-HT2B EMAX) is 100%. Also, the “Function 5-HT2B (Gq-IP1, efficacy relative to 5-HT), agonist type” value at 5-HT2B (h) [1] (tested at 1, 3, 10, 100 μM) is “Full agonist -”. Further, the “Binding SERT (antagonist radioligand), % competition” value at 5-HT transporter (h) [2] is reported as 68.1% competition. The inhibition at up to 100 µM at Serotonin transporter (across dose range tested (1, 3, 10, 100 μM), read-out: Function SERT, inhibition of SERT) lay within 95.3 to 106%. The half-maximal inhibitory concentration (IC50) at Serotonin transporter (blocking reuptake of 5-HT, read-out: Function SERT Estimated IC50) was less than 200 nM; on Dopamine transporter [4] (blocking reuptake of DA, read-out: Function DAT Estimated IC50) it was roughly 1000 nM; in assay [10] (blocking reuptake of NE, read-out: Function NET Estimated IC50) it was less than 1000 nM. Further, the “Function SERT (blocking reuptake of 5-HT), efficacy in words” value on Serotonin transporter (tested at 1, 3, 10, 100 μM) was “Full efficacy,”. Moreover, the maximum response (Emax) at 10 µM was determined as 89.8% at 5-HT2A (h) [3] (at 10 μM, relative to 5-HT, read-out: Function 5-HT2A EMAX) and 99.3% on 5-HT2C (h) [9] (at 10 μM, relative to 5-HT, read-out: Function 5-HT2C EMAX). Moreover, the “Function 5-HT2A (IP-1, efficacy relative to 5-HT), agonist type” value on 5-HT2A (h) [3] (tested at 1, 3, 10, 100 μM) is “Nearly full agonist -”. The inhibition at 100 µM on Dopamine transporter [4] (at 100 μM, read-out: Function DAT, inhibition of DAT) came out at 99.1%. Besides, the “Function DAT (blocking reuptake of DA), efficacy in words” value at Dopamine transporter [4] (tested at 1, 10, 100 μM) is reported as “Full efficacy,”. Further, at 5-HT2B (h) [5], the “Binding 5-HT2B (agonist radioligand), % competition” value worked out at 100.1% competition. The “Binding NET (antagonist radioligand), % competition” value in assay [6] came out at 25.2% competition. Further, the “Binding 5-HT2C (agonist radioligand), % competition” value on 5-HT2C (h) [7] is given as 98.4% competition. Besides, the “Binding DAT (antagonist radioligand), % competition” value on dopamine transporter (h) amounted to 15.7% competition. Moreover, the “Binding 5-HT2A (agonist radioligand), % competition” value on 5-HT2A (h) [8] was found to be 94.4% competition. The “Function 5-HT2C (Gq-IP1, efficacy relative to 5-HT), agonist type” value at 5-HT2C (h) [9] (tested at 1, 3, 10, 100 μM) is given as “Full agonist -”. In [10] (at 10 μM, read-out: Function NET, inhibition of NET), the inhibition at 10 µM is 93.5%. Further, the “Function NET (blocking reuptake of NE), efficacy in words” value in assay [10] (tested at 1, 10, 100 μM) is “Near full efficacy,”.
For orientation: Ki means the dissociation constant of the complex between target and ligand, obtained from inhibition or displacement. Regarding `COc1cc(CCN)cc(OC)c1OC` [Reference Compound 1, 3,4,5-trimethoxyphenethylamine], the Ki on 5-HT2A receptor is 6300 nM.
With `CNC(C)Cc1ccc2c(c1)OCO2` (centres unmarked) [MDMA, 3,4-methylenedioxymethamphetamine], the Ki was greater than 10000 nM in assay [11], 7800 nM on 5-HT2A (h) [14] and greater than 10000 nM at 5-HT transporter (h) [15]. Besides, the IC50 in assay [12] (read-out: Function NET IC50, lower end of literature range) was no less than 108 nM; in assay [12] (read-out: Function NET IC50, upper end of literature range), no more than 6600 nM; on Dopamine transporter [13] (read-out: Function DAT IC50, lower end of literature range) it was no less than 410 nM; at Dopamine transporter [13] (read-out: Function DAT IC50, upper end of literature range) it was no more than 17000 nM.
